The values below come from patent US8507219B2, “Method of treating inflammation with statins” (MUSC Foundation for Research Development, priority 1997, dated 2013).

For test [1], the system named is TNF-α production in rat primary microglia. Kind of test: LPS-induced TNF-α production (ELISA) in rat primary microglia. It counts as cell-based. As for the experimental part: (§1) Determination of TNF-α and IL-1β in culture supernatants Cells were stimulated with LPS in serum-free media for 24 h in the presence or absence of forskolin or rolipram, and concentrations of TNF-α and IL-1β were measured in culture supernatants by using high-sensitivity enzyme-linked immunosorbent assay (R&D Systems, USA) according to the manufacturer's instructions.
(In general: ELISA stands for enzyme-linked immunosorbent assay.)

Test [2] has as its system IL-1β production in rat primary microglia. As to the kind of experiment: LPS-induced IL-1β production (ELISA) in rat primary microglia. It counts as cell-based. On the procedure:
as §1

Test [3] concerns control human skin fibroblasts. Kind of test: β-oxidation of lignoceric acid in control human skin fibroblasts. It counts as cell-based. The settings on record: 72 h.
Test [4] has as its system cultured skin fibroblasts of X-ALD. As to the kind of experiment: VLCFA ratios (C26:0/C22:0, C24:0/C22:0) in X-ALD skin fibroblasts. It counts as cell-based, human. The settings on record: about 15 days of treatment.
In another test the test system is iNOS. Kind of test: Expression of iNOS protein (immunoblot) and mRNA (Northern) in rat primary astrocytes. It counts as cell-based. The settings on record: 10 μM forskolin or 0.2 μM H-89 15 min before cytokines / LPS. On the procedure:
Immunoblot analysis for iNOS Following 24 h incubation in the presence or absence of stimuli by different cytokines or LPS, macrophages were scraped off, washed with Hank's buffer, and homogenized in 50 mM Tris-HCl (pH 7.4) containing protease inhibitors ([…] PMSF, 5 μg/ml aprotinin, 5 μg/ml pepstatin A, and 5 μg/ml leupeptin). After electrophoresis the proteins were transferred onto a nitrocellulose membrane, and the iNOS band was visualized by immunoblotting with antibodies against mouse macrophage iNOS and [^125I]-labeled protein A (Singh et al., 1988).
RNA isolation, Northern blot analysis, and reverse-transcriptase coupled polymerase chain reaction (RT-PCR) Stimulated peritoneal macrophages were taken out from culture dishes directly by adding Ultraspec-II RNA reagent (Biotecx Laboratories Inc.) and total RNA was isolated according to the manufacturer's protocol. For northern blot analyses, 20 μg of total RNA was electrophoresed on 1.2% denaturing formaldehyde-agarose gels, electrotransferred to Hybond-Nylon Membrane (Amersham) and hybridized at 68° C. with ^32P-labeled cDNA probe using Express Hyb hybridization solution (Clontech) as described by the manufacturer. […]; After hybridization filters were washed two to three times in solution I (2×SSC, 0.05% SDS) for 1 h at room temperature followed by solution II (0.1×SSC, 0.1% SDS) at 50° C. for another hour. The membranes were then dried and exposed to X-ray film (Kodak). The same filters were stripped and rehybridized with probes for GAPDH. The relative mRNA content for iNOS was measured after scanning the bands with a Biorad (Model GS-670) imaging densitometer.
Immunoblot analysis for iNOS Following 24 h incubation in the presence or absence of different stimuli, cells were scraped off, washed with Hank's buffer, and homogenized in 50 mM Tris-HCl (pH 7.4) containing protease inhibitors. After electrophoresis the proteins were transferred onto a nitrocellulose membrane, and the iNOS band was visualized by immunoblotting with antibodies against mouse macrophage iNOS and [^125I]-labeled protein A.
RNA isolation and Northern blot analysis Cells were taken out from culture dishes directly by adding Ultraspec-II RNA reagent (Biotecx Laboratories Inc.) and total RNA was isolated according to the manufacturer's protocol. For Northern blot analyses, 20 μg of total RNA was electrophoresed on 1.2% denaturing formaldehyde-agarose gels, electrotransferred to Hybond-Nylon Membrane (Amersham) and hybridized at 68° C. with ^32P-labeled cDNA probe using Express Hyb hybridization solution (Clontech) as described by the manufacturer. […]; After hybridization filters were washed two or three times in solution I (2×SSC, 0.05% SDS) for one hour at room temperature followed by solution II (0.1×SSC, 0.1% SDS) at 50° C. for another hour. The membranes were then dried and exposed with X-ray films (Kodak). The same filters were stripped and rehybridized with probes for GAPDH. The relative mRNA content for iNOS was measured after scanning the bands with a Biorad (Model GS-670) imaging densitometer.
Immunoblot analysis for iNOS After a 24 h incubation in the presence or absence of different stimuli, cells were scraped off, washed with Hank's buffer, and homogenized in 50 mM Tris-HCl (pH 7.4) containing protease inhibitors (1 mM PMSF, 5 μg/ml aprotinin, 5 μg/ml pepstatin A, and 5 μg/ml leupeptin). After electrophoresis the proteins were transferred onto a nitrocellulose membrane, and the iNOS band was visualized by immunoblotting with antibodies against mouse macrophage iNOS and [^125I]-labeled protein A.
RNA isolation and Northern blot analysis Cells were taken out from culture dishes directly by adding Ultraspec-II RNA reagent (Biotecx Laboratories Inc., Houston, Tex.), and total RNA was isolated according to the manufacturer's protocol. […]

For test [5], the system named is ceramide production in rat primary astrocytes. As to the kind of experiment: Degradation of sphingomyelin to ceramide (DAG kinase assay, HPTLC) in rat primary astrocytes. It counts as cell-based. The following applies: 10 mM NAC or 100 μM PDTC 1 h before TNF-α or IL-1β (50 ng/ml), diamide 0.5 mM or aminotriazole 5 mM. On the procedure: Lipid extraction Approximately 1.0×10^6 cells were exposed to different cytokines in the presence or absence of antioxidants for different periods and lipids were extracted according to the methods described by Welsh (1996).
Quantification of sphingomyelin by HPTLC and densitometry Sphingomyelin was separated from total lipid extracts by HPTLC (LPK-plates from Whatman Labsales, USA) as described (Ganser et al., 1988) for phospholipids with the modification, that the plate was overrun for 30 min during its development and was dried overnight in vacuum desicator. Sphingomyelin was quantitated by densitometric scanning using Imaging Densitometer (Model GS-670; Bio-Rad, USA) and software provided with the instrument by the manufacturer.
Quantification of ceramide levels by diacylglycerol kinase assay Ceramide content was quantified essentially according to Priess et al. using diacylglycerol (DAG) kinase and [γ-^32P]ATP (Priess et al., 1986). Briefly, dried lipids were solubilized in 20 μl of an octyl β-D-glucoside/cardiolipin solution (7.5% octyl β-D-glucoside, 5 mM cardiolipin in 1 mM DTPA) by sonication in a sonicator bath. […] The labeled ceramide 1-phosphate was resolved with a solvent system consisting of methyl acetate: n-propanol:chloroform:methanol:0.25% KCl in water:acetic-acid (100:100:100:40:36:2). A standard sample of ceramide was phosphorylated under identical conditions and developed in parallel. […] Quantification of ceramide 1-phosphate was carried out by autoradiography and densitometric scanning using Imaging Densitometer (Model GS-670; Bio-Rad, USA). Values are expressed either as arbitrary units (absorbance) or as percent change.
Lipid Extraction Approximately 1.0×10^6 cells were exposed to different cytokines in the presence or absence of antioxidants for different periods, and lipids were extracted according to the methods described by Welsh (1996).
Quantification of Sphingomyelin by High Performance TLC and Densitometry Sphingomyelin was separated from total lipid extracts by high performance TLC (LHPK plates from Whatman) as described by Ganser et al. (1988) for phospholipids with the following modification: the plate was overrun for 30 min during its development and was dried overnight in vacuum desiccator. Sphingomyelin was quantitated by densitometric scanning using Imaging Densitometer (model GS-670; Bio-Rad), and software was provided with the instrument by the manufacturer.
Quantification of Ceramide Levels by Diacylglycerol Kinase Assay Ceramide content was quantified essentially according to Priess et al. (1986) using diacylglycerol (DAG) kinase and [γ-^32P]ATP. Briefly, dried lipids were solubilized in 20 μl of an octyl β-D-glucoside/cardiolipin solution (7.5% octyl β-D-glucoside, 5 mM cardiolipin in 1 mM DTPA) by sonication in a sonicator bath. […] The labeled ceramide-1-phosphate was resolved with a solvent system consisting of methyl acetate:n-propyl alcohol:chloroform:methanol, 0.25% KCl in water:acetic acid (100:100:100:40:36:2). A standard sample of ceramide was phosphorylated under identical conditions and developed in parallel. […] Quantification of ceramide-1-phosphate was carried out by autoradiography and densitometric scanning using Imaging Densitometer (model GS-670; Bio-Rad). Values are expressed either as arbitrary units (absorbance) or as percent change.

The subject of test [6] is NOS activity in rat resident macrophages. Kind of test: NOS activity (L-citrulline from L-arginine) in homogenates of treated rat resident macrophages. In kind it is cell-based. The settings on record: LPS 1.0 μg/ml, 24 h. As for the experimental part:
NOS activity was measured directly by production of L-[2,3,4,5-^3H]citrulline from L-[2,3,4,5-^3H] arginine (Feinstein et al., 1994a). […] Assays were carried out for 30 to 40 min and the production of L-[2,3,4,5-^3H] citrulline was linear. The reactions were stopped by addition of 800 μl of ice-cold 20 mM HEPES (pH 5.5) followed by addition of 2 ml of Dowex-50W equilibrated in the same buffer. The samples were then centrifuged and the concentration of L-[^3H]citrulline was determined in the supernatant by liquid scintillation counting.

Test [7] concerns TNF-α production in rat resident macrophages. As to the kind of experiment: LPS-/IFN-γ-induced TNF-α production (ELISA) in rat macrophages. It counts as cell-based. As for the experimental part:
Resident macrophages cultured in serum-free RPMI 1640 medium received 20 mM NAC or 100 μM PDTC 2 h before the addition of stimuli. When stimuli were used separately their concentrations were: LPS, 1.0 μg/ml; IFN-γ, 200 U/ml, and when they were used together, their concentrations were: LPS, 0.2 μg/ml; IFN-γ, 50 U/ml. Supernatants were collected 24 h after the addition of stimuli to measure TNF-α concentration using ELISA as described.

Entries after “also recorded” stand apart in the source; their conditions may differ.

Regarding `O=S(=O)(NCCNC/C=C/c1ccc(Br)cc1)c1cccc2cnccc12` [H-89], in test [1], the “LPS-induced production of TNF-α” value is reported as “stimulated the production of these proinflammatory cytokines in rat primary microglia”. Besides, in test [2], the “LPS-induced production of IL-1β” value is on record as “stimulated the production of these proinflammatory cytokines in rat primary microglia”. The “Lignoceric acid β-oxidation” value in test [3] (forskolin 4 μM, 1,9 dideoxy forskolin 4 μM, 8-Br-cAMP 50 μM, H-89 1 μM, myristoylated PKI 0.2 μM, Control 565.2 ± 48.3) came out at 405.6 ± 44.1 pmol/h/mg protein. The “ratios of C26:0/C22:0 and C24:0/C22:0 / level of VLCFA” value in test [4] is “blocked the observed effect of forskolin on the level of VLCFA”. Moreover, the “cytokine-induced expression of iNOS” value in the test on iNOS was “stimulated the cytokine-induced expression of iNOS”.
Consider `CC[C@H](C)C(=O)O[C@H]1CCC=C2C=C[C@H](C)[C@H](CC[C@@H]3C[C@@H](O)CC(=O)O3)[C@H]21` [Mevastatin], for which, in test [3] (Lovastatin 5 μM, Mevastatin 5 μM, NaPA 5 mM, Control 570.2 ± 52.3), the “Lignoceric acid β-oxidation” value came out at 889.6 ± 78.4 pmol/h/mg protein.
Turning to `S=C(S)N1CCCC1` [PDTC, pyrrolidine dithiocarbamate], the “degradation of sphingomyelin to ceramide / ceramide production” value in test [5] is listed as “potentially blocked the decrease in sphingomyelin as well as the increase in ceramide; also recorded: also inhibited cytokine-mediated degradation of SM to ceramide”. Further, the “LPS-induced NOS activity, L-citrulline formation” value in test [6] is on record as “inhibited LPS-induced NOS activity”. In addition, the “Inhibition (%)” value was 96% in test [7] (LPS 0.2 μg/ml + IFN-γ 50 U/ml, 20 mM NAC or 100 μM PDTC 2 h before) and 95% in test [7] (LPS 1.0 μg/ml, 20 mM NAC or 100 μM PDTC 2 h before). For the same compound, the TNF-α is 1.4 ± 0.3 ng/24 h/mg protein in test [7] (LPS 0.2 μg/ml + IFN-γ 50 U/ml, 20 mM NAC or 100 μM PDTC 2 h before, 24 h); 0.9 ± 0.1 ng/24 h/mg protein in test [7] (LPS 1.0 μg/ml, 20 mM NAC or 100 μM PDTC 2 h before, 24 h); 0.7 ± 0.2 ng/24 h/mg protein in test [7] (antioxidant alone (20 mM NAC or 100 μM PDTC), no stimulus).
